Experimental data: US20250018048A1, “FLUCONAZOLE-COX INHIBITOR HYBRIDS: A DUAL-ACTING CLASS OF ANTIFUNGAL AZOLES” (Ramot at Tel-Aviv University Ltd., priority 2022, published 2025)
Values after ≈ are worked out from the molar mass of the structure shown.

Legend:
Type in all cases: cell-based
C. auris ATCC MYA5002 = experiment: MIC broth double-dilution assay with MTT (CLSI M27-A3); details: YPAD medium, 37° C., 24 h, growth score 0 or 1
Method: (§1) Minimal inhibitory concentration broth double-dilution assay: C. auris minimal inhibitory concentrations (MICs) were determined using CLSI M27-A3 guidelines with minor modifications. Starter cultures were streaked from glycerol stock onto YPAD agar plates and grown for 24 h at 37° C. Colonies were suspended in 1 mL PBS and diluted to 1×10^−3 optical density at 600 nm (OD600) and then diluted 1:100 into fresh medium. hybrids dissolved in DMSO were added to YPAD broth (32 μL stock solution in 1218 μL of YPAD broth), and serial double dilutions of hybrids in YPAD were prepared in flat-bottomed 96-well microplates (Corning) to enable testing of concentrations ranging from 64 μg/mL to 0.007 μg/mL. Control wells with yeast cells but no drug and blank wells containing only YPAD were prepared. An equal volume (100 μL) of yeast suspension in YPAD broth was added to each well with the exceptions of the blank wells. After incubation for 24 h at 37° C., MTT (50 μL of a 1 mg/mL solution in ddH2O) was added to each well followed by additional incubation at 37° C. for 2 h. MIC values (Table S3) were defined as the lowest concentration of an antifungal agent that caused a specified reduction in visible growth as per the CLSI M27-A3 protocol. The magnitude of reduction in visible growth was assessed using the following numerical scale: 0, optically clear; 1, slightly hazy; 2, prominent decrease (˜50%) in visible growth; 3, slight reduction in visible growth; and 4, no reduction in visible growth. The MIC was defined based on reduction in growth to 0 or 1. Results were confirmed in two independent experiments, and each concentration was tested in triplicate. FLC and VOR were used as control drugs.

C. auris ATCC MYA5001 = experiment: as above; details: YPAD medium, 37° C., 24 h, growth score 0 or 1
Method: as §1

C. guilliermondii T-47 = experiment: MIC80 broth double-dilution assay; details: YPAD medium, 30° C., 24 h
Method: (§2) The antifungal activities of the 24 azole-COX inhibitor hybrids were evaluated against a panel of 16 representative strains of different species of the genus Candida. Candida species cause both superficial and systemic infections. The panel included strains of C. albicans, C. glabrata, C. parapsilosis, C. tropicalis, C. guilliermondii, C. dubliniensis, and C. auris (Table S2). To evaluate antifungal activity, the minimal inhibitory concentration 80% (MIC80) values were determined, which were defined as the lowest drug concentrations with turbidity (measured at OD600) less than or equal to that of specific 1:5 dilutions of the growth control. As controls, FLC and VOR, were tested.
(§3) C. albicans, C. glabrata, C. parapsilosis, C. guilliermondii, C. tropicalis, and C. dubliniensis MICs were determined using CLSI M27-A3 guidelines with minor modifications. Starter cultures were streaked from glycerol stock onto YPAD agar plates and grown for 24 h at 30° C. Colonies were suspended in 1 mL PBS and diluted to 1×10^−3 OD600 and then diluted 1:100 into fresh medium. Hybrids dissolved in DMSO were added to YPAD broth (32 μL stock solution in 1218 μL of YPAD broth), and serial double dilutions of hybrids in YPAD were prepared in flat-bottomed 96-well microplates (Corning) to enable testing of concentrations ranging from 64 μg/mL to 0.003 μg/mL. Control wells with yeast cells but no drug and blank wells containing only YPAD were prepared. An equal volume (100 μL) of yeast suspensions in YPAD broth was added to each well with the exceptions of the blank wells. MIC values (Tables S4-S6) were determined after 24 h at 30° C. by measuring the OD600 using a plate reader (Infinite M200 PRO, Tecan). MIC values were defined as the point at which the OD600 was reduced by >80% compared to the no-drug wells. Each concentration was tested in triplicate, and results were confirmed by two independent sets of experiments. FLC and VOR were used as control drugs.

[1] = test system: C. albicans 742 (erg11ΔΔ/erg3ΔΔ mutant C. albicans strain); experiment: MIC80 broth double-dilution assay, strain lacking CYP51; details: YPAD medium, 30° C., 24 h; erg11ΔΔ/erg3ΔΔ mutant lacking CYP51
Method: as §2
(§4) The clinically used FLC and VOR act primarily by preventing ergosterol biosynthesis via inhibition of CYP51. Analysis was done to determine whether fungal growth inhibition by the hybrids required the presence of the ERG11 gene that encodes for CYP51. The antifungal activities of hybrids 1 and 5 and of FLC and VOR were determined against an erg11ΔΔ/erg3ΔΔ mutant C. albicans strain and against C. albicans SN152 from which this double knockout strain was derived (Table S2). […] Yeast growth was followed at OD600 over 48 h in 96-well plates containing serial double dilutions of the tested hybrids.
as §3

C. albicans SN152 = experiment: MIC80 broth double-dilution assay; details: YPAD medium, 30° C., 24 h; parent strain of the erg11ΔΔ/erg3ΔΔ mutant
Method: as §2
(§5) MIC80 values were determined using the broth microdilution method over a concentration range of 0.003-64 μg/mL. Orange circles represent C. albicans strains, yellow circles represent C. glabrata strains, and green circles represent C. parapsilosis, C. tropicalis, C. dubliniensis and C. auris. Cells were grown in YPAD medium at 30° C. (For C. auris strains 37° C.) 24 h. Each concentration was tested in triplicate, and results were confirmed in at least two independent experiments.
as §4, §3

C. dubliniensis T-99 = experiment: MIC80 broth double-dilution assay; details: YPAD medium, 30° C., 24 h
Method: as §2, §5, §3

C. albicans SC5314 = experiment: MIC80 broth double-dilution assay; details: YPAD medium, 30° C., 24 h
Method: as §2, §5, §3

C. albicans P-87 = experiment: MIC80 broth double-dilution assay; details: YPAD medium, 30° C., 24 h
Method: as §2, §5, §3

C. albicans ATCC 24433 = experiment: MIC80 broth double-dilution assay; details: YPAD medium, 30° C., 24 h
Method: as §2, §5, §3

[2] = test system: C. parapsilosis ATCC 22019; experiment: MIC80 broth double-dilution assay; details: YPAD medium, 30° C., 24 h
Method: as §2, §5, §3

C. albicans ATCC 90028 = experiment: MIC80 broth double-dilution assay; details: YPAD medium, 30° C., 24 h
Method: as §2, §5, §3

C. tropicalis 660 = experiment: MIC80 broth double-dilution assay; details: YPAD medium, 30° C., 24 h
Method: as §2, §5, §3

O=C(NC[C@](O)(Cn1cncn1)c1ccc(F)cc1F)c1ccccc1O [Hybrid 21]
MIC against C. auris 5002 (C. auris ATCC MYA5002): 8 µg/mL (≈ 21.4 µM)
MIC against C. auris 5001 (C. auris ATCC MYA5001): 0.25 µg/mL (≈ 0.668 µM)
MIC80 against C. guilliermondii T-47 (C. guilliermondii T-47): 1 µg/mL (≈ 2.67 µM)
MIC80 against C. albicans 742 [1]: >64 µg/mL
MIC80 against C. albicans SN152 (C. albicans SN152): 0.12 µg/mL (≈ 0.321 µM)
MIC80 against C. dubliniensis T-99 (C. dubliniensis T-99): 2 µg/mL (≈ 5.34 µM)
MIC80 against C. albicans SC5314 (C. albicans SC5314): 0.12 µg/mL (≈ 0.321 µM)
MIC80 against C. albicans P-87 (C. albicans P-87): 0.12 µg/mL (≈ 0.321 µM)
MIC80 against C. albicans 24433 (C. albicans ATCC 24433): 0.12 µg/mL (≈ 0.321 µM)
MIC80 against C. parapsilosis 22019 [2]: 1 µg/mL (≈ 2.67 µM)
MIC80 against C. albicans 90028 (C. albicans ATCC 90028): 0.25 µg/mL (≈ 0.668 µM)
MIC80 against C. tropicalis 660 (C. tropicalis 660): 0.12 µg/mL (≈ 0.321 µM)

O=C(NC[C@](O)(Cn1cncn1)c1ccc(F)cc1F)c1cc(-c2ccc(F)cc2F)ccc1O [Hybrid 19]
MIC against C. auris 5002 (C. auris ATCC MYA5002): 2 µg/mL (≈ 4.11 µM)
MIC against C. auris 5001 (C. auris ATCC MYA5001): 0.12 µg/mL (≈ 0.247 µM)
MIC80 against C. guilliermondii T-47 (C. guilliermondii T-47): 2 µg/mL (≈ 4.11 µM)
MIC80 against C. albicans 742 [1]: 64 µg/mL (≈ 132 µM)
MIC80 against C. albicans SN152 (C. albicans SN152): 0.03 µg/mL (≈ 0.0617 µM)
MIC80 against C. dubliniensis T-99 (C. dubliniensis T-99): 2 µg/mL (≈ 4.11 µM)
MIC80 against C. albicans SC5314 (C. albicans SC5314): 0.06 µg/mL (≈ 0.123 µM)
MIC80 against C. albicans P-87 (C. albicans P-87): 0.03 µg/mL (≈ 0.0617 µM)
MIC80 against C. albicans 24433 (C. albicans ATCC 24433): 0.06 µg/mL (≈ 0.123 µM)
MIC80 against C. parapsilosis 22019 [2]: 0.06 µg/mL (≈ 0.123 µM)
MIC80 against C. albicans 90028 (C. albicans ATCC 90028): 0.12 µg/mL (≈ 0.247 µM)
MIC80 against C. tropicalis 660 (C. tropicalis 660): 0.12 µg/mL (≈ 0.247 µM)

O=C(Cc1ccccc1Nc1c(Cl)cccc1Cl)NC[C@](O)(Cn1cncn1)c1ccc(F)cc1F [Hybrid 23]
MIC against C. auris 5002 (C. auris ATCC MYA5002): 64 µg/mL (≈ 120 µM)
MIC against C. auris 5001 (C. auris ATCC MYA5001): 2 µg/mL (≈ 3.76 µM)
MIC80 against C. guilliermondii T-47 (C. guilliermondii T-47): 8 µg/mL (≈ 15 µM)
MIC80 against C. albicans 742 [1]: >64 µg/mL
MIC80 against C. albicans SN152 (C. albicans SN152): 1 µg/mL (≈ 1.88 µM)
MIC80 against C. dubliniensis T-99 (C. dubliniensis T-99): 4 µg/mL (≈ 7.51 µM)
MIC80 against C. albicans SC5314 (C. albicans SC5314): 1 µg/mL (≈ 1.88 µM)
MIC80 against C. albicans P-87 (C. albicans P-87): 1 µg/mL (≈ 1.88 µM)
MIC80 against C. albicans 24433 (C. albicans ATCC 24433): 1 µg/mL (≈ 1.88 µM)
MIC80 against C. parapsilosis 22019 [2]: 0.5 µg/mL (≈ 0.939 µM)
MIC80 against C. albicans 90028 (C. albicans ATCC 90028): 1 µg/mL (≈ 1.88 µM)
MIC80 against C. tropicalis 660 (C. tropicalis 660): >64 µg/mL

O=C(NC[C@](O)(Cn1cncn1)c1ccc(F)cc1F)c1cccnc1Nc1cccc(C(F)(F)F)c1 [Hybrid 17]
MIC against C. auris 5002 (C. auris ATCC MYA5002): 4 µg/mL (≈ 7.72 µM)
MIC against C. auris 5001 (C. auris ATCC MYA5001): 0.25 µg/mL (≈ 0.482 µM)
MIC80 against C. guilliermondii T-47 (C. guilliermondii T-47): 2 µg/mL (≈ 3.86 µM)
MIC80 against C. albicans 742 [1]: 16 µg/mL (≈ 30.9 µM)
MIC80 against C. albicans SN152 (C. albicans SN152): 0.06 µg/mL (≈ 0.116 µM)
MIC80 against C. dubliniensis T-99 (C. dubliniensis T-99): 2 µg/mL (≈ 3.86 µM)
MIC80 against C. albicans SC5314 (C. albicans SC5314): 0.12 µg/mL (≈ 0.231 µM)
MIC80 against C. albicans P-87 (C. albicans P-87): 0.25 µg/mL (≈ 0.482 µM)
MIC80 against C. albicans 24433 (C. albicans ATCC 24433): 0.12 µg/mL (≈ 0.231 µM)
MIC80 against C. parapsilosis 22019 [2]: 0.5 µg/mL (≈ 0.964 µM)
MIC80 against C. albicans 90028 (C. albicans ATCC 90028): 0.12 µg/mL (≈ 0.231 µM)
MIC80 against C. tropicalis 660 (C. tropicalis 660): 2 µg/mL (≈ 3.86 µM)

COc1ccc2cc([C@H](C)C(=O)NC[C@@](O)(Cn3cncn3)c3ccc(F)cc3F)ccc2c1 [Hybrid 12]
MIC80 against C. guilliermondii T-47 (C. guilliermondii T-47): 32 µg/mL (≈ 68.6 µM)
MIC80 against C. albicans 742 [1]: >64 µg/mL
MIC80 against C. albicans SN152 (C. albicans SN152): 2 µg/mL (≈ 4.29 µM)
MIC80 against C. dubliniensis T-99 (C. dubliniensis T-99): 32 µg/mL (≈ 68.6 µM)
MIC80 against C. albicans SC5314 (C. albicans SC5314): 2 µg/mL (≈ 4.29 µM)
MIC80 against C. albicans P-87 (C. albicans P-87): 4 µg/mL (≈ 8.57 µM)
MIC80 against C. albicans 24433 (C. albicans ATCC 24433): 4 µg/mL (≈ 8.57 µM)
MIC80 against C. parapsilosis 22019 [2]: 4 µg/mL (≈ 8.57 µM)
MIC80 against C. albicans 90028 (C. albicans ATCC 90028): 4 µg/mL (≈ 8.57 µM)
MIC80 against C. tropicalis 660 (C. tropicalis 660): >64 µg/mL

O=C(NC[C@@](O)(Cn1cncn1)c1ccc(F)cc1F)c1ccccc1O [Hybrid 22]
MIC80 against C. guilliermondii T-47 (C. guilliermondii T-47): 16 µg/mL (≈ 42.7 µM)
MIC80 against C. albicans 742 [1]: >64 µg/mL
MIC80 against C. albicans SN152 (C. albicans SN152): 8 µg/mL (≈ 21.4 µM)
MIC80 against C. dubliniensis T-99 (C. dubliniensis T-99): >64 µg/mL
MIC80 against C. albicans SC5314 (C. albicans SC5314): 8 µg/mL (≈ 21.4 µM)
MIC80 against C. albicans P-87 (C. albicans P-87): 16 µg/mL (≈ 42.7 µM)
MIC80 against C. albicans 24433 (C. albicans ATCC 24433): 16 µg/mL (≈ 42.7 µM)
MIC80 against C. parapsilosis 22019 [2]: 8 µg/mL (≈ 21.4 µM)
MIC80 against C. albicans 90028 (C. albicans ATCC 90028): 8 µg/mL (≈ 21.4 µM)
MIC80 against C. tropicalis 660 (C. tropicalis 660): 32 µg/mL (≈ 85.5 µM)
